{"source": "patent US8592455B2", "about": "(priority 2008, dated 2013)", "biological_target": "Pim1 kinase (Homo sapiens (Human), UniProt P11309)", "sequence (P11309 whole entry)": "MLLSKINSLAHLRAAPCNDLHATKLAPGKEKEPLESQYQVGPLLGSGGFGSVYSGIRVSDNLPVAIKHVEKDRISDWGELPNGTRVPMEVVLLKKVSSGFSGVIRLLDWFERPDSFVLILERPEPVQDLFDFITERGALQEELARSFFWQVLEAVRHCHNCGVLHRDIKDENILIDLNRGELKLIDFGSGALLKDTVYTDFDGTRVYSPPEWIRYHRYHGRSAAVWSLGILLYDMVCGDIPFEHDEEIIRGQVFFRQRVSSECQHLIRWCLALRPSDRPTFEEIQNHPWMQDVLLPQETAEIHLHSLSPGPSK", "experiment": "biochemical", "note": "pIC50: −log10 of the molar value.", "data": [{"smiles": "Nc1ccc(-c2c(F)cccc2F)nc1C(=O)Nc1cnccc1[C@@H]1CC[C@H](O)[C@H](N)C1", "note": "(stereo in doubt) [Example 102, 3-amino-N-(4-(3-amino-4-hydroxycyclohexyl)pyridin-3-yl)-6-(2,6-difluorophenyl)picolinamide]", "values": [{"measurement": "pIC50", "result": 9.00}]}]}
